In brackets after ≈: the same amount, converted by molar mass. Like-named read-outs stand apart in the source and are kept apart here.
Test system: extensively drug-resistant A. baumannii clinical isolates (planktonic cell)
Experiment: microbe, parasite or virus in culture
Format: cell-based, Acinetobacter baumannii
Text: Nine XDRAB strains were isolated from clinical specimens such as the septum, urine, or respiratory lavage fluid of patients from the respiratory intensive care unit, intensive care unit, the cardiothoracic surgery department, and the neurology department at the First Affiliated Hospital of Chengdu Medical College during the period from 2018 to 2020 (Chengdu, Sichuan, China). In addition, A. baumannii ATCC 19606, Staphylococcus aureus ATCC 29213, and Escherichia coli ATCC 25922 were used as quality control strains in antimicrobial susceptibility testing (AST) and obtained from the American Type Culture Collection (ATCC, Manassas, VA, United States).
The minimum inhibitory concentrations (MICs) were determined by the broth microdilution method for the antibacterial agents and peptide antibiotics for A. baumannii based on the guidelines provided by the Clinical and Laboratory Standards Institute (CLSI) ([Humphries et al., 2021]). Briefly, bacterial cells were inoculated in Luria–Bertani agar medium at 37°C for 16–20 h, and then resuspended in saline (0.9% sodium chloride) to adjust the bacterial content to reach the 0.5 McFarland turbidity standard, followed by a 20-fold dilution. Antimicrobial solutions were prepared according to the CLSI ([Humphries et al., 2021]). Finally, 180 μl CAMHB, 10 µl corresponding antimicrobials, and 10 µl bacterial resuspension were added into 96-well plate (NEST TC, 701001, www.cell-nest.com). The value of OD600 was measured after incubating at 37°C for 16–20 h.

[1] = Acinetobacter baumannii, isolate AB1, planktonic, broth microdilution, CAMHB, 37°C 16–20 h, OD600, read-out: MIC
[2] = Acinetobacter baumannii, isolate AB2, planktonic, broth microdilution, CAMHB, 37°C 16–20 h, OD600, read-out: MIC
[3] = Acinetobacter baumannii, isolate AB3, planktonic, broth microdilution, CAMHB, 37°C 16–20 h, OD600, read-out: MIC
[4] = Acinetobacter baumannii, isolate AB4, planktonic, broth microdilution, CAMHB, 37°C 16–20 h, OD600, read-out: MIC
[5] = Acinetobacter baumannii, isolate AB5, planktonic, broth microdilution, CAMHB, 37°C 16–20 h, OD600, read-out: MIC
[6] = Acinetobacter baumannii, isolate AB6, planktonic, broth microdilution, CAMHB, 37°C 16–20 h, OD600, read-out: MIC
[7] = Acinetobacter baumannii, isolate AB7, planktonic, broth microdilution, CAMHB, 37°C 16–20 h, OD600, read-out: MIC
[8] = Acinetobacter baumannii, isolate AB8, planktonic, broth microdilution, CAMHB, 37°C 16–20 h, OD600, read-out: MIC
[9] = Acinetobacter baumannii, isolate AB9, planktonic, broth microdilution, CAMHB, 37°C 16–20 h, OD600, read-out: MIC
[10] = isolate AB1, planktonic, broth microdilution, CAMHB, 37°C 16–20 h, OD600
[11] = isolate AB2, planktonic, broth microdilution, CAMHB, 37°C 16–20 h, OD600
[12] = isolate AB3, planktonic, broth microdilution, CAMHB, 37°C 16–20 h, OD600
[13] = isolate AB4, planktonic, broth microdilution, CAMHB, 37°C 16–20 h, OD600
[14] = isolate AB5, planktonic, broth microdilution, CAMHB, 37°C 16–20 h, OD600
[15] = isolate AB6, planktonic, broth microdilution, CAMHB, 37°C 16–20 h, OD600
[16] = isolate AB7, planktonic, broth microdilution, CAMHB, 37°C 16–20 h, OD600
[17] = isolate AB8, planktonic, broth microdilution, CAMHB, 37°C 16–20 h, OD600

| MIC [1] [µg/mL] | MIC [2] [µg/mL] | MIC [3] [µg/mL] | MIC [4] [µg/mL] | MIC [5] [µg/mL] | MIC [6] [µg/mL] | MIC [7] [µg/mL] | MIC [8] [µg/mL] | MIC [9] [µg/mL] | Structure (SMILES) | MIC (Acinetobacter baumannii) [µg/mL] | MIC [10] [µg/mL] | MIC [11] [µg/mL] | MIC [12] [µg/mL] | MIC [13] [µg/mL] | MIC [14] [µg/mL] | MIC [15] [µg/mL] | MIC [16] [µg/mL] | MIC [17] [µg/mL] |
| --- | --- | --- | --- | --- | --- | --- | --- | --- | --- | --- | --- | --- | --- | --- | --- | --- | --- | --- |
| 16 (≈ 44.3 µM) | 16 (≈ 44.3 µM) | 16 (≈ 44.3 µM) | 8 (≈ 22.1 µM) | 8 (≈ 22.1 µM) | 16 (≈ 44.3 µM) | 8 (≈ 22.1 µM) | 16 (≈ 44.3 µM) | 16 (≈ 44.3 µM) | C[C@H]1COc2c(N3CCN(C)CC3)c(F)cc3c(=O)c(C(=O)O)cn1c23 [Levofloxacin, levofloxacin] |  |  |  |  |  |  |  |  |  |
| 32 (≈ 83.4 µM) | 32 (≈ 83.4 µM) | 32 (≈ 83.4 µM) | 32 (≈ 83.4 µM) | 32 (≈ 83.4 µM) | 32 (≈ 83.4 µM) | 32 (≈ 83.4 µM) | 32 (≈ 83.4 µM) | 32 (≈ 83.4 µM) | C[C@@H](O)[C@H]1C(=O)N2C(C(=O)O)=C(S[C@@H]3CN[C@H](C(=O)N(C)C)C3)[C@H](C)[C@H]12 [Meropenem, meropenem] |  |  |  |  |  |  |  |  |  |
| 64 (≈ 214 µM) | 64 (≈ 214 µM) | 64 (≈ 214 µM) | 64 (≈ 214 µM) | 64 (≈ 214 µM) | 64 (≈ 214 µM) | 64 (≈ 214 µM) | 64 (≈ 214 µM) | 64 (≈ 214 µM) | C[C@@H](O)[C@H]1C(=O)N2C(C(=O)O)=C(SCCN=CN)C[C@H]12 [Imipenem, imipenem] |  |  |  |  |  |  |  |  |  |

Second part, the molecule before the results:

| Structure (SMILES) | MIC [1] [µg/mL] | MIC [2] [µg/mL] | MIC [3] [µg/mL] | MIC [4] [µg/mL] | MIC [5] [µg/mL] | MIC [6] [µg/mL] | MIC [7] [µg/mL] | MIC [8] [µg/mL] | MIC [9] [µg/mL] | MIC (Acinetobacter baumannii) [µg/mL] | MIC [10] [µg/mL] | MIC [11] [µg/mL] | MIC [12] [µg/mL] | MIC [13] [µg/mL] | MIC [14] [µg/mL] | MIC [15] [µg/mL] | MIC [16] [µg/mL] | MIC [17] [µg/mL] |
| --- | --- | --- | --- | --- | --- | --- | --- | --- | --- | --- | --- | --- | --- | --- | --- | --- | --- | --- |
| NCC[C@H](O)C(=O)N[C@@H]1C[C@H](N)[C@@H](O[C@H]2O[C@H](CN)[C@@H](O)[C@H](O)[C@H]2O)[C@H](O)[C@H]1O[C@H]1O[C@H](CO)[C@@H](O)[C@H](N)[C@H]1O [Amikacin, amikacin] | > 1020 | > 1020 | > 1020 | > 1020 | > 1020 | > 1020 | > 1020 | > 1020 | > 1020 |  |  |  |  |  |  |  |  |  |
| CO/N=C(\C(=O)N[C@@H]1C(=O)N2C(C(=O)O)=C(COC(C)=O)CS[C@H]12)c1csc(N)n1 [Cefotaxime, cefotaxime] |  |  |  |  |  |  |  |  |  | 256 (≈ 562 µM) | 256 (≈ 562 µM) | 256 (≈ 562 µM) | 256 (≈ 562 µM) | 256 (≈ 562 µM) | 256 (≈ 562 µM) | 256 (≈ 562 µM) | 256 (≈ 562 µM) | 256 (≈ 562 µM) |
| CNC(C)C1CCC(N)C(OC2C(N)CC(N)C(OC3OCC(C)(O)C(NC)C3O)C2O)O1 (stereo not drawn) [Gentamicin, gentamicin] |  |  |  |  |  |  |  |  |  | > 1020 | >1024 | >1024 | >1024 | >1024 | >1024 | >1024 | >1024 | >1024 |
| CC(C)(O/N=C(\C(=O)N[C@@H]1C(=O)N2C(C(=O)[O-])=C(C[n+]3ccccc3)CS[C@H]12)c1csc(N)n1)C(=O)O [Ceftazidime, ceftazidime] |  |  |  |  |  |  |  |  |  | 256 (≈ 468 µM) | 256 (≈ 468 µM) | 256 (≈ 468 µM) | 256 (≈ 468 µM) | 256 (≈ 468 µM) | 256 (≈ 468 µM) | 256 (≈ 468 µM) | 256 (≈ 468 µM) | 256 (≈ 468 µM) |

Reference: publication PMC9130746, “In Vitro Activity of Peptide Antibiotics in Combination With Other Antimicrobials on Extensively Drug-Resistant Acinetobacter baumannii in the Planktonic and Biofilm Cell” (Frontiers in Pharmacology, 2022)
